Several values for one entry are separate records, joined by “and”; a condition that tells them apart may be missing. Equal entries are not always repeated. Entries after “also recorded” stand apart in the source; their conditions may differ.
B1: Activin A: effector tested in the HD-DoE experiments (protein, UniProt P08476 311-426, looked up)
Inhibin beta A chain: GLECDGKVNICCKKQFFVSFKDIGWNDWIIAPSGYHANYCEGECPSHIAGTSGSSLSFHSTVINHYRMRGHSPFANLKSCCVPTKLRPMSMLYYDDGQNIIKKDIQNMIVEECGCS
modifications: Inhibin beta A chain
B2: BDNF: brain-derived neurotrophic factor, BDNF agonist (protein, UniProt P23560 19-247, looked up)
Neurotrophic factor BDNF …: APMKEANIRGQGGLAYPGVRTHGTLESVNGPKAGSRGLTSLADTFEHVIEELLDEDQKVRPNEENNKDADLYTSRVMLSSQVPLEPPLLFLLEEYKNYLDAANMSMRVRRHSDPARRGELSVCDSISEWVTAADKKTAVDMSGGTVTVLEKVPVSKGQLKQYFYETKCNPMGYTKEGCRGIDKRHWNSQCRTTQSYVRALTMDSKKRIGWRFIRIDTSCVCTLTIKRGR
B3: GDNF: glial cell line-derived neurotrophic factor, GDNF agonist (protein, UniProt P39905 78-211, looked up)
Glial cell line-derived …: SPDKQMAVLPRRERNRQAAAANPENSRGKGRRGQRGKNRGCVLTAIHLNVTDLGLGYETKEELIFRYCSGSCDAAETTYDKILKNLSRNRRLVSDKVGQACCRPIAFDDDLSFLDDNLVYHILRKHSAKRCGCI

Legend:
[1] = test system: stage 2 neural progenitors; test: HD-DoE another 12-factor model for stage 3 recipe (FIG. 24, 25, 30); format: cell-based, human; details: for impact on expression of SOX6 / impact on expression of MSX1: dynamic profile, 12 effectors
Method: In another 12-factor model, additional factors including Activin A, Takinib (TAK inhibitor), FGF8b, AZD3147 (mTOR antagonist), MHY1485 (mTOR agonist), and Yhhu-3792 (Notch agonist) were tested. Some of the factors from previous model (BMP7, A 8301, LDN193189, PD0325901, MK2206 and DBZ) were also included.
(§1) To assess the impact of elimination of each validated factor identified in Example 5 for the stage 3 and stage 4 recipes, we used dynamic profile analysis and compared the expression level of genes of interest in absence of each finalized factor while others are present.
In another model, to determine the combinatorial effect of AZD3147 and DBZ on gene profile of cells in presence of other factors of final recipe, the expression levels of SOX6 and MSX1 were compared in the absence of each of the factors in the presence of PD0325901 and BMP7. These two compounds were the only final compounds that were included in inputs of this experimental model The results are shown in FIG. 30A and FIG. 30B. […] When DBZ was removed, the level of SOX6 and MSX1 both decreased to 140 and 35, respectively.

[2] = test system: stage 2 neural progenitors; test: HD-DoE 12-factor model for stage 3 recipe (FIG. 19-23, 29); format: cell-based, human
Excerpt: To develop the neuronal differentiation recipes, the impact of various agonist and antagonists (effectors) on maturation of MB neural progenitors was investigated using the HD-DoE method described in Example 1. These effectors were chosen based on available literature on developmental biology, differentiation of stem cells as well as mouse and human single cell RNA-seq data from midbrain neurons at the time.
To engineer the recipe of stage 3 of differentiation, cells were first cultured in the stage 1 and stage 2 media as described herein, then they were treated with combinations of 8 or 12 factors for 3 days and the gene expression of cells in each condition was modeled. To guide the cells towards a subtype of midbrain dopaminergic neurons that reside in Substantia Nigra pars compacta (SNc) region of the brain, neural progenitors need to be SOX6^+ (Pereira et al. (2021) Cell Rep. 37:109975 Oosterveen et al. (2021) Stem Cell Reports 16:2718-2735 Poulin et al. (2020) Trends Neurosci. 43:155-169). CORIN, NGN2 and MSX1 are other markers involved in neurogenesis of dopaminergic neurons originating from floorplate region of developing midbrain (Wang et al. (2020) Cells 9:1489; Samata et al. (2016) Nat Commun. 7:13097; Ono et al. (2007) Development 134:3213-3225; Prakash et al. (2006) J. Physiol. 575:403410).
Therefore, we focused on maximizing expression of SOX6, CORIN, NGN2 and MSX1 in modeling experiments. One of the 12-factor models, the results of which are shown in FIG. 19, including LDN193189, AGN193109, BMP7, TTNPB, PD0325901, A8301, MHY1485, CHIR99021, XAV939, SANT-1, Purmorphamine and MK2206, provided a combination set that could maximize expression level of CORIN to more than 2000.
as §1
In the stage 3 recipe, each of the finalized factors were removed in their respective models while other factors were present and the expression level of genes of interest was assessed compared to presence of all factors. When AGN193109 was excluded, level of all CORIN, KCNJ6, MSX1 and SOX6 decreased from 900 to 450, 50 to 35, 140 to 110 and 105 to 60, respectively. […] When PD0325901 was removed, expression levels of CORIN and KCNJ6 increased to 1200 and 70 while levels of MSX1 and SOX6 decreased to 105 and 20. In the absence of CHIR99021, the expression level of CORIN was again increased to 1200 while the level of KCNJ6 and MSX1 dropped to 50 and 115. […] Therefore, it was decided to include this compound in the final recipe. […] Therefore, CHIR99021 was also included in the final recipe.

[3] = test system: human pluripotent stem cells; test: HD-DoE 13-factor experiment for stage 1 recipe, gene expression modeled after 3-day treatment; dynamic profile and factor criticality analysis; format: cell-based
Excerpt: This example utilizes a method of High-Dimensional Design of Experiments (HD-DoE), as previously described in Bukys et al. (2020) Iscience 23:101346. The method employs computerized design geometries to simultaneously test multiple process inputs and offers mathematical modeling of a deep effector/response space. The method allows for finding combinatorial signaling inputs that control a complex process, such as during cell differentiation. It allows testing of multiple plausible critical process parameters, as such parameters impact output responses, such as gene expression. Because gene expression provides hallmark features of the phenotype of, for example, a human cell, the method can be applied to identify, and understand, which signaling pathways control cell fate. In the current example, the HD-DOE method was applied with the intent to find conditions for induction of midbrain neural progenitor-expressed genes, directly from the pluripotent stem cell state.
To develop the recipe for each stage, the impact of agonists and antagonists of multiple signaling pathways (referred to herein as “effectors”) on the expression of two sets of 53 pre-selected genes after a 3-day treatment was tested and modeled. These effectors are small molecules or proteins that are commonly used during stepwise differentiation of stem cells to specific fates. The choice of the effectors to test was based on current literature on neural induction in the midbrain region of the developing brain and differentiation of stem cells to neural progenitors.
To test the effectors, experiments with at least 8 factors were designed that can assess the response of cells to 48 or more different combinations of effectors in a range of concentrations. To analyze the models, we focused on expression of genes expressed in the midbrain region, including OTX2, DMBX1, FOXA2, LMX1A, and on the absence of GBX2, which is a hindbrain marker. The impact of each effector on gene expression level is defined by a parameter called factor contribution that is calculated for each effector during the modeling.
To identify the recipe of stage 1 of differentiation, cells were treated with various effectors for 3 days and the gene expression of cells was modeled. […] This model consisted of 13 factors including LDN193189, PD173074, BLU9931, Purmorphamine, SC79, MK2206, ZM336372, PD0325901, CHIR99021, XAV939, UCLA-gp130, Tofacitinib and GO 6983.
(§2) To assess the impact of elimination of each validated factor, we used dynamic profile analysis and compared the expression level of genes of interest in absence of each finalized factor while others are present.
In the stage 1 recipe, each of the five finalized factors were removed while the other four factors were present and the expression levels of OTX2, DMBX1, FOXA2 and LMX1A was assessed compared to the levels in the presence of all five factors (FIG. 11A-B). […] Expression level of DMBX1 increased in absence of LDN193189, however values of OTX2, FOXA2 and LMX1A decreased.

[4] = test system: stage 1 neural stem cells; test: HD-DoE 12-factor experiment for stage 2 recipe (second model, FIG. 8-10, 13); format: cell-based, human; details: dynamic profile, 12 effectors
Method: To test additional factors like FGF8 that is routinely used in midbrain differentiation protocols, we ran another 12-factor experiment consisting of LDN193189, BMP7, A 83-01, Activin A, Takinib, PD0325901, MK2206, FGF8b, AZD3147, MHY1485, GSI-XX and Yhhu 3792. Similar to the previous experiment, hiPSCs were treated with stage 1 media for 3 days and then treated with 96 conditions of combinations of the factors for an additional 3 days. When this model was optimized for maximum expression of FOXA2, BMP7 with factor contribution of 13.7 and MK2206 with 14.2 had the most impact on its expression followed by AZD 3147 with factor contribution of 10.9.
as §2
In the stage 2 recipe, each of the six finalized factors were removed while the other five factors were present and the expression levels of FOXA2, LMX1A and GBX2 were assessed, compared to the levels in the presence of all factors. According to the first experiment model, the absence of TTNPB lead to a rise of GBX2 expression, while the value of FOXA2 and LMX1A reduced drastically from 10,000 to 0 and 30,000 to 15,000, respectively. The absence of A 83-01 reduced the expression of FOXA2 from 10,000 to 7000, however, as expected, the value of LMX1A increased from 30,000 to 40,000. […] According to the second experiment model, the absence of BMP7 and MK2206 both reduced the level of FOXA2 while increasing the value of LMX1A, with BMP7 as the main effector that led to 0 expression of FOXA2.

[5] = test system: stage 3 immature neurons; test: HD-DoE 8-factor experiment for stage 4 recipe (FIG. 27, 28, 31); format: cell-based, human; details: for impact on expression of NR4A2: 8-factor model / dynamic profile; for expression level of PITX3 in absence of the factor / expression level of NR4A2 in absence of the factor: stage 4 recipe, other factors present; for expression level of PITX3 in absence of the factor: 40 with all factors; for expression level of NR4A2 in absence of the factor: 400 with all factors
Method: To further differentiate the cells to a mature neuronal identity, additional HD-DoE experiments were performed on the cells that were cultured in stage 1, stage 2 and stage 3 differentiation media. After 4 days, gene expression of cells in different combinatorial conditions were investigated. At this time, we focused on maximal expression of more mature dopaminergic genes such as NR4A2, PITX3 and TH (Tiklová et al. (2020) Nat Commun. 11:2434; Fiorenzano et al. (2021) Nat Commun., 12:7302). In one model, cells were treated with a combinatorial matrix with eight inputs including CHIR99021, BDNF, GDNF, Rosiglitazone, GW7647, DBZ and heparin.
as §1
In the stage 4 recipe, each of six finalized factors were excluded while other factors were present and the expression levels of NR4A2 and PITX3 were assessed compared to the presence of all factors.

Molecule	impact on expression of SOX6 [1]	impact on expression of FOXA2 [4]	impact on expression of LMX1A [4]	impact on expression of MSX1 [1]	impact on expression of NR4A2 [5]	expression level of PITX3 in absence of the factor [5]	expression level of NR4A2 in absence of the factor [5]	further results
O=C(NOC[C@H](O)CO)c1ccc(F)c(F)c1Nc1ccc(I)cc1F [PD0325901]	positive impact	–	–	–	–	–	–	level of MSX1 in absence of the factor ([1]; AZD3147, DBZ, PD0325901 and BMP7 set, 45 with all factors): 40; level of SOX6 in absence of the factor ([1]; AZD3147, DBZ, PD0325901 and BMP7 set, 185 with all factors): 165; factor contribution ([2]; model optimized for maximum expression of KCNJ6, positive regulators): 10.9; factor contribution ([2]; model optimized for maximum expression of SOX6, positive impact): 13.5; expression level of KCNJ6 in absence of the factor ([2]; stage 3 recipe, other factors present, 50 with all factors): 70; expression level of SOX6 in absence of the factor ([2]; stage 3 recipe, other factors present, 105 with all factors): 20; expression level of MSX1 in absence of the factor ([2]; stage 3 recipe, other factors present, 140 with all factors): 105; expression level of CORIN in absence of the factor ([2]; stage 3 recipe, other factors present, 900 with all factors): 1200; impact on expression of OTX2 ([3]; dynamic profile, 13 effectors): positive impact; factor contribution ([3]; model optimized for maximum expression of OTX2, positive impact, 3-day treatment): 18.1; expression level of LMX1A in absence of the factor ([3]; stage 1 recipe, other four factors present, 300 with all five factors): 500; expression level of FOXA2 in absence of the factor ([3]; stage 1 recipe, other four factors present, 600 with all five factors): 700; expression level of DMBX1 in absence of the factor ([3]; stage 1 recipe, other four factors present, 3000 with all five factors): 900
CCCn1/c(=N/C(=O)c2cccc(C(N)=O)c2)[nH]c2ccccc21 [Takinib]	positive effect	did not make a meaningful positive change	did not make a meaningful positive change	negatively regulate; also recorded: negative impact	–	–	–	–
B1	positive effect	did not make a meaningful positive change	did not make a meaningful positive change	negatively regulate; also recorded: negative impact	–	–	–	–
B2	–	–	–	–	positive impact	10	100	impact on expression level of PITX3 ([5]; dynamic profile, 8 effectors): positive impact; factor contribution ([5]; model maximized for NR4A2, positive regulatory impact, after 4 days): 17 and 17.1
B3	–	–	–	–	positive regulatory impact	25	300	–

— US20240117303A1, “METHODS AND COMPOSITIONS FOR GENERATING HUMAN MIDBRAIN DOPAMINERGIC NEURONS FROM NEURAL PROGENITOR CELLS” (Trailhead Biosystems Inc., priority 2022, published 2024)
